Data from US20230099811A1, “COMPOSITION OF HYALURONIC ACID AND USE ALONE AND IN COMBINATION WITH RETINOIDS TO IMPROVE SKIN” (RoC OPCO LLC, priority 2021, published 2023).

What was measured:
[1] = system: Collagen type-I (COL1A1) gene; test: Gene expression change by qPCR in EpiDerm-FT: COL1A1; type: cell-based, human; settings: vs vehicle-treated tissues, GAPDH housekeeping
From the text: (§1) The purpose of this study was to evaluate the hyaluronic acid (HA) expression change activity of RoC® HA Serum Capsules (i.e. Example 2.0), RoC® Retinol Serum Capsules (i.e. Example 1.0), commercially available HA Serum (1.5 wt. % HA) and commercially available Retinol Serum (0.3 wt. % retinol) compared to 0.15% Retinol-treated tissues in cultured human epidermal/dermal skin tissues (EpiDerm-FT™). HA levels from culture medium, tissue lysates, HA histology and gene expression related to dermal anti-aging effects were quantified using qPCR method after 24- and 72-hours incubation with test materials.

[2] = system: Collagen type-IV (COL4A1) gene; test: Gene expression change by qPCR in EpiDerm-FT: COL4A1; type: cell-based, human; settings: vs vehicle-treated tissues, GAPDH housekeeping
From the text: as §1

[3] = system: Hyaluronic acid synthase-1 (HAS1) gene; test: Gene expression change by qPCR in EpiDerm-FT: HAS1; type: cell-based, human; settings: vs vehicle-treated tissues, GAPDH housekeeping
From the text: as §1

[4] = system: Hyaluronic acid synthase-2 (HAS2) gene; test: Gene expression change by qPCR in EpiDerm-FT: HAS2; type: cell-based, human; settings: vs vehicle-treated tissues, GAPDH housekeeping
From the text: as §1

Elastin (ELN) gene = test: Gene expression change by qPCR in EpiDerm-FT: ELN; type: cell-based, human; settings: vs vehicle-treated tissues, GAPDH housekeeping
From the text: as §1

[5] = system: Collagen type-III (COL3A1) gene; test: Gene expression change by qPCR in EpiDerm-FT: COL3A1; type: cell-based, human; settings: vs vehicle-treated tissues, GAPDH housekeeping
From the text: as §1

[6] = system: cultured human epidermal/dermal skin tissues (EpiDerm-FT); test: Hyaluronic acid levels by HA ELISA in culture medium and tissue lysates of EpiDerm-FT; type: cell-based; settings: vs vehicle-treated tissues
From the text: as §1

Fibronectin (FN1) gene = test: Gene expression change by qPCR in EpiDerm-FT: FN1; type: cell-based, human; settings: vs vehicle-treated tissues, GAPDH housekeeping
From the text: as §1

[7] = system: cultured human epidermal/dermal skin tissues (EpiDerm-FT); test: Alcian Blue histology of dermal layer, image analysis, EpiDerm-FT; type: cell-based; settings: vs vehicle-only treated tissues
From the text: as §1
After incubations, tissues were fixed and subjected to the normal steps of tissue preparation for histological analysis: dehydration, paraffin embedding, sectioning and staining with Alcian Blue. Histological activity was analyzed using image analysis including blue-color deconvolution and luminosity per section area in dermal layer. The percent change effect of each treatment was calculated comparing the vehicle-only treated tissues group.

[8] = 24 hr, n = 3, listed as 0.15% Retinol formulated in DMSO

## CC1=C(/C=C/C(C)=C/C=C/C(C)=C/CO)C(C)(C)CCC1 [0.15% Retinol in DMSO, Retinol]
[1]; 24 hr
  Gene Expression change, COL1A1: −22%
[1]; 72 hr
  Gene Expression change, COL1A1: +18%
[2]; 24 hr
  Gene Expression change, COL4A1: −30%
[2]; 72 hr
  Gene Expression change, COL4A1: +9%
[3]; 24 hr
  Gene Expression change, HAS1: −52%
[3]; 72 hr
  Gene Expression change, HAS1: −29%
[4]; 24 hr
  Gene Expression change, HAS2: −11%
[4]; 72 hr
  Gene Expression change, HAS2: −18%
Elastin (ELN) gene; 24 hr
  Gene Expression change, ELN: −21%
Elastin (ELN) gene; 72 hr
  Gene Expression change, ELN: +25%
[5]; 24 hr
  Gene Expression change, COL3A1: −22%
[5]; 72 hr
  Gene Expression change, COL3A1: +8%
[6]; 24 hr, n = 3
  Hyaluronic Acid (HA) levels change, Culture medium: +34%
  Hyaluronic Acid (HA) levels change, Tissue lysates: +52%
[6]; [8]
  Hyaluronic Acid (HA) levels change, Culture medium: 34%
  Hyaluronic Acid (HA) levels change, Tissue lysates: 52%
[6]; 72 hr, n = 3
  Hyaluronic Acid (HA) levels change, Culture medium: +25%
  Hyaluronic Acid (HA) levels change, Tissue lysates: +49%
Fibronectin (FN1) gene; 24 hr
  Gene Expression change, FN1: −16%
Fibronectin (FN1) gene; 72 hr
  Gene Expression change, FN1: +45%
Fibronectin (FN1) gene; 72 hr, listed as 0.15% Retinol formulated in DMSO
  Gene Expression change, FN1: 45%
[7]; 24 hr
  Histology, Alcian Blue in Dermis staining change: +81%
[7]; 72 hr
  Histology, Alcian Blue in Dermis staining change: −9%
